In patent US8394824B2 (priority 2004, dated 2013):

How the values were obtained:
[1] = system: specific allergic asthma of guinea pigs; conditions: guinea pig, in vivo

SMILES	latent period [1]	ileum contraction response resulted from electric irritation (ex vivo ileum specimen)
C[N+]12CCC(CC1)C(OCC(O)(c1ccccc1)C1CCCC1)C2.[Br-] (single isomer, unassigned) [Example 3, 1-type diastereoisomer of 3-(N-methyl-quinuclidinyl)-(2′-phenyl-2′-cyclopentyl-2′-hydroxyl)ethyl ether bromide]	243.50 ± 42.13 s	completely blocked
C[N+]12CCC(CC1)C(OCC(O)(c1ccccc1)C1CCCC1)C2.[Br-] (single isomer, unassigned) [Example 4, II-type diastereoisomer of 3-(N-methyl-quinuclidinyl)-(2′-phenyl-2′-cyclopentyl-1-2′-hydroxyl)ethyl ether bromide]	231.60 ± 37.30 s	completely blocked
C[N+]12CCC(CC1)C(OCC(O)(c1ccccc1)C1CCCC1)C2.[Br-] (stereo not drawn) [Example 2, 3-(N-methyl-quinuclidinyl)-(2′-phenyl-2′-cyclopentyl-2′-hydroxyl)ethyl ether bromide]	248.90 ± 38.24 s	completely blocked
